These results are taken from patent US6605722B2, “Tyrosine derivatives with anti-leukotrienen activity” (Rotta Research Laboratorium S.p.A., priority 2000, dated 2003).

The target of data set [1] is T1, peptide-leukotriene receptor (Cavia porcellus, UniProt Q2NNR5).
T1 construct: from tissue; host or cells: guinea-pig lung membranes
T1 sequence (Q2NNR5 1-340): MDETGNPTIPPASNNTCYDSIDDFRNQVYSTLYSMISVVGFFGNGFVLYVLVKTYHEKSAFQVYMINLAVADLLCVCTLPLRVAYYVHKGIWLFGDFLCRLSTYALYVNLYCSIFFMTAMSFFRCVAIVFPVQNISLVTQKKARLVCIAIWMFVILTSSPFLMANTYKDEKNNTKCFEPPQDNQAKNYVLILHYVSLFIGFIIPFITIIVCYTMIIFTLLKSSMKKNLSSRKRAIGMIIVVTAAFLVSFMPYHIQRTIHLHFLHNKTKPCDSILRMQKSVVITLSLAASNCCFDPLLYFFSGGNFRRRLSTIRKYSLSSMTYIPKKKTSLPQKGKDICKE
In words: Inhibition of the binding of [3H]-LTD4 to guinea-pig lung membranes. As to conditions: for IC50: 0.3 nM [3H]-LTD4, guinea-pig lung membranes, 30 minutes at 25° C., read-out: IC50, concentration of antagonist displacing 50% of the [3H]-LTD4 ligand from the receptor; for affinity compared with the specific LTD4 agonist: guinea-pig lung membranes, nanomolar level. As for the experimental part:
The method described by Frey et al. [Eur. J. Pharmacol. 244 (1993): 239-250] was followed, with slight modifications.
The separation of the bound from the free was performed by rapid filtration on Whatman GF/B paper filters.

Data set [2] concerns contractions induced by LTD4 on isolated guinea-pig trachea. In words: Antagonism of contractions induced by LTD4 on isolated guinea-pig trachea in vitro (Schild analysis). As to conditions: for ED50 of LTD4 (cumulative dose-response curve) / pA2 calculated according to Schild: isolated guinea-pig trachea; for pA2 calculated according to Schild: LTD4 contraction. On the procedure:
J. Physiol. Pharmacol. 67 (1989): 17-28], with slight modifications. […] The results were expressed as the effect as a percentage of the maximum contraction induced by 300 μM acetylcholine.

Data set [3] in a line: Plasma levels in rats (oral bio-availability). It counts as in vivo. As to conditions: 20 mg/kg. As for the experimental part:
In addition to the potency shown in vitro in the models given by way of example above, an advantageous and important characteristic of the compounds of the present invention is their optimal oral bio-availability. Thus, for example, Compound 1, administered to rats at a dose of 20 mg/kg, provided a maximum plasma concentration (CMAX) of about 20 mcg/ml 1 hour after administration.

In data set [4] the test system is sensitized guinea-pigs (ovalbumin challenge). Put plainly: Bronchoconstriction after aerosolized ovalbumin challenge in sensitized guinea-pigs. It counts as in vivo. As to conditions: 0.3 mg/kg orally 30 minutes before aerosolized ovalbumin challenge.
Data set [5] is described as follows: Acute toxicity (LD50) in mice. As to conditions: mouse, in vivo. It counts as in vivo. The source says:
(§1) The compounds according to the invention also have a low toxicity profile.

The subject of the next data set is mice. In words: Acute toxicity (LD50) in mice. It counts as in vivo. As to conditions: oral route; effective dose 0.3 mg/kg.
Excerpt: as §1

[6] abbreviates: antagonist concentration 100 nM.

SMILES strings stand for the structures. Structures can show the parent of a compound that is named as a salt.

On to `O=C(NC(Cc1ccc(OCc2ccc3ccccc3n2)cc1)C(=O)O)c1ccc(-c2ccccc2)cc1` (stereo not shown) [Compound 8], for which the IC50 in data set [1] was 61.7 nM.

In the case of `O=C(NC(Cc1ccc(OCc2ccc3ccccc3n2)cc1)C(=O)O)c1ccc2ccccc2c1` (stereo not shown) [Compound 11], the melting point (commonly the temperature, or range, at which the solid turns liquid) worked out at 196 °C. The IC50 in data set [1] was 39 nM.

In turn, `O=C(NC(Cc1ccc(OCc2ccc3ccccc3n2)cc1)C(=O)O)c1c[nH]c2ccccc12` (stereo not shown) [Compound 24] yielded a melting point of 226 °C. Moreover, in data set [1], the IC50 came out at 55.3 nM.

For the compound `O=C(NC(Cc1ccc(OCc2ccc3ccc(F)cc3n2)cc1)C(=O)O)c1cc2ccccc2cn1` (stereo not shown) [Compound 22], the melting point was 227 °C. In data set [2] (Cavia porcellus, equivalent to the calculated pA2), the Kb (in general, the equilibrium dissociation constant of an antagonist, usually derived from a functional assay) is 1.73 nM. Moreover, the “ED50 of LTD4 (cumulative dose-response curve)” value (from here on “ED50 of LTD4”) in data set [2] (antagonist concentration 10 nM) was 8.03 nM. Further, in data set [2] (antagonist concentration 30 nM), the “ED50 of LTD4” value stood at 13.71 nM. In data set [2] (setting [6]), the “ED50 of LTD4” value amounted to 25.39 nM. In data set [1], the IC50 was 5.3 nM and the “affinity compared with the specific LTD4 agonist” value was “comparable”.

For `O=C(NC(Cc1ccc(OCc2ccc3ccccc3n2)cc1)C(=O)O)c1ccc(-c2ccccc2)cc1` (stereo not shown) (as salt: hydrochloride) [Compound 8], the melting point was 230 °C (dec.).

In turn, `O=C(NC(Cc1ccc(OCc2ccc3ccccc3n2)cc1)C(=O)O)c1cnc2ccccc2c1` (stereo not shown) [Compound 12] returned a melting point of 230 °C. For the same compound, the IC50 in data set [1] stood at 76 nM.

`O=C(NC(Cc1ccc(OCc2ccc3ccccc3n2)cc1)C(=O)O)c1cc2ccccc2cn1` (stereo not shown) [Compound 21] showed a melting point of 204 °C. For the same compound, the IC50 in data set [1] is 9.7 nM.

The compound `O=C(NC(Cc1ccc(OCc2ccc3ccccc3n2)cc1)C(=O)O)c1ccccn1` (stereo not shown) [Compound 10] yielded a melting point of 171 °C. Moreover, the IC50 in data set [1] was 32.3 nM.

Regarding `O=C(NC(Cc1ccc(OCc2ccc3ccccc3n2)cc1)C(=O)O)c1ccc2ncccc2c1` (stereo not shown) [Compound 13], the melting point came out at 248 °C. Further, in data set [1], the IC50 was found to be 135 nM.

In the case of `O=C(NC(Cc1ccc(OCc2ccc3ccccc3n2)cc1)C(=O)O)c1ccccc1` (stereo not shown) [Compound 2], the IC50 in data set [1] worked out at 190 nM.

`O=C(NC(Cc1ccc(OCc2ccc3ccc(Cl)cc3n2)cc1)C(=O)O)c1ccc(-c2ccccc2)cc1` (stereo not shown) [Compound 9] gave a melting point of 193 °C. The IC50 in data set [1] stood at 217 nM.

Compound `O=C(NC(Cc1ccc(OCc2ccc3ccccc3n2)cc1)C(=O)O)c1cc2ccccc2[nH]1` (stereo not shown) [Compound 23] gave a melting point of 223 °C. In data set [1], the IC50 amounted to 103 nM.

`O=C(NC(Cc1ccc(OCc2ccc3ccccc3n2)cc1)C(=O)O)c1ccc(Cl)cc1` (stereo not shown) [Compound 3]: the melting point worked out at 197 °C. For the same compound, the IC50 in data set [1] was 98.1 nM.

Regarding `Cc1ccc2ccc(COc3ccc(CC(NC(=O)c4ccc5ccccc5n4)C(=O)O)cc3)nc2c1` (stereo not shown) [Compound 15], the melting point is 214 °C. The IC50 in data set [1] amounted to 11.3 nM.

Consider `O=C(NC(Cc1ccc(OCc2ccc3ccccc3n2)cc1)C(=O)O)c1ccc2ccccc2n1` (racemic) [Compound 1, O-(2-quinolinylmethyl)-N-quinaldoyl-D,L-tyrosine], for which the “time of maximum plasma concentration after administration” value in data set [3] came to 1 h. For the same compound, the AUC – broadly, the area under the concentration-time curve, a measure of exposure – in data set [3] (rat, plasma, oral) is roughly 50000 ng·h/mL. In data set [3] (rat, plasma, oral, 8 h, read-out: plasma concentration 8 h after administration), the concentration at 8 h is greater than 2000 ng/mL. Besides, the Cmax in data set [3] (rat, plasma, oral, read-out: maximum plasma concentration (CMAX)) is roughly 20000 ng/mL. Moreover, in data set [2], the “pA2 calculated according to Schild” value is recorded as “pA2 = 7.88”. Besides, the “ED50 of LTD4” value was 4.53 nM in data set [2] (antagonist concentration 10 nM), 15.31 nM in data set [2] (antagonist concentration 30 nM) and 31.75 nM in data set [2] (setting [6]). Moreover, the IC50 in data set [1] is 20 nM.

As to `O=C(N[C@@H](Cc1ccc(OCc2ccc3ccc(F)cc3n2)cc1)C(=O)O)c1ccc2ccccc2n1` [Compound 18, O-(7-fluoro-2-quinolinylmethyl)-N-quinaldoyl-L-tyrosine], in data set [1], the IC50 amounted to 5.5 nM and the “affinity compared with the specific LTD4 agonist” value was “comparable”.

Turning to `O=C(NC(Cc1ccc(OCc2ccc3ccccc3n2)cc1)C(=O)O)c1nccc2ccccc12` (stereo not shown) [Compound 20], the melting point is 157 °C. Moreover, in data set [1], the IC50 came out at 64.1 nM.

In turn, `COc1ccc(C(=O)NC(Cc2ccc(OCc3ccc4ccccc4n3)cc2)C(=O)O)cc1` (stereo not shown) [Compound 5] yielded a melting point of 212 °C. Besides, the IC50 in data set [1] is 117 nM.

Regarding `O=C(NC(Cc1ccc(OCc2ccc3ccc(F)cc3n2)cc1)C(=O)O)c1ccc2ccccc2n1` (racemic) [Compound 17, O-(7-fluoro-2-quinolinylmethyl)-N-quinaldoyl-D,L-tyrosine], the “pA2 calculated according to Schild” value in data set [2] is given as “pA2 = 8.53”. Also, the “ED50 of LTD4” value is given as 4.69 nM in data set [2] (antagonist concentration 3 nM), 9.48 nM in data set [2] (antagonist concentration 30 nM) and 19.78 nM in data set [2] (antagonist concentration 300 nM). Moreover, in data set [1], the IC50 stood at 7.9 nM. In addition, the “affinity compared with the specific LTD4 agonist” value in data set [1] is listed as “comparable”. In data set [4], the “inhibition of the signs of bronchoconstriction (first appearance of abdominal contractions)” value is recorded as “completely inhibited”. Further, the LD50 – broadly, the dose expected to kill half of the subjects tested – in data set [5] (iv) was greater than 50 mg/kg; in data set [5] (po) it was greater than 300 mg/kg. Moreover, the “acute toxic oral dose in mice relative to the pharmacologically effective dose” value with mice was “more than 1000 times”.

In turn, `Cn1cc(C(=O)NC(Cc2ccc(OCc3ccc4ccccc4n3)cc2)C(=O)O)c2ccccc21` (stereo not shown) [Compound 26] yielded a melting point of 180 °C. Moreover, the IC50 in data set [1] is 50.8 nM.

`Cn1c(C(=O)NC(Cc2ccc(OCc3ccc4ccccc4n3)cc2)C(=O)O)cc2ccccc21` (stereo not shown) [Compound 25] displayed a melting point of 198 °C. For the same compound, in data set [1], the IC50 is 34.8 nM.

For the compound `O=C(NC(Cc1ccc(OCc2ccc3ccccc3n2)cc1)C(=O)O)c1ccc(C(F)(F)F)cc1` (stereo not shown) [Compound 6], the melting point was determined as 211 °C. Further, the IC50 in data set [1] was determined as 42.7 nM.

In the case of `O=C(NC(Cc1ccc(OCc2ccc3ccccc3n2)cc1)C(=O)O)c1ccc2nc[nH]c2c1` (stereo not shown) [Compound 29], the melting point is greater than 250 °C. Also, the IC50 in data set [1] was 90.3 nM.

For the compound `O=C(NC(Cc1ccc(OCc2ccc3ccccc3n2)cc1)C(=O)O)c1ccnc2ccccc12` (stereo not shown) [Compound 16], the melting point was 224 °C. Besides, the IC50 in data set [1] came to 200 nM.

In the case of `O=C(NC(Cc1ccc(OCc2ccc3ccccc3n2)cc1)C(=O)O)c1cccc2cccnc12` (stereo not shown) [Compound 14], the melting point is 141 °C (dec.). Also, the IC50 in data set [1] turned out to be 64 nM.

`O=C(NC(Cc1ccc(OCc2ccc3ccccc3n2)cc1)C(=O)O)c1ccccc1-c1ccccc1` (stereo not shown) [Compound 7] registered a melting point of 155 °C. Moreover, the IC50 in data set [1] came to 181 nM.

`O=C(NC(Cc1ccc(OCc2ccc3ccccc3n2)cc1)C(=O)O)c1cnc2ccccc2n1` (stereo not shown) [Compound 27] showed a melting point greater than 240 °C. The IC50 in data set [1] came to 161 nM.

With `O=C(N[C@H](Cc1ccc(OCc2ccc3ccc(F)cc3n2)cc1)C(=O)O)c1ccc2ccccc2n1` [Compound 19, O-(7-fluoro-2-quinolinylmethyl)-N-quinaldoyl-D-tyrosine], in data set [1], the IC50 is 12.2 nM.

Regarding `O=C(NC(Cc1ccc(OCc2ccc3ccccc3n2)cc1)C(=O)O)c1cccc(Cl)c1` (stereo not shown) [Compound 4], the melting point was 187 °C. The IC50 in data set [1] was 110 nM.

The compound `O=C(NC(Cc1ccc(OCc2ccc3ccccc3n2)cc1)C(=O)O)c1ccc(-c2ccccc2)cn1` (stereo not shown) [Compound 30] came in with a melting point of 170 °C. In addition, in data set [1], the IC50 came to 24.1 nM.

Take `O=C(NC(Cc1ccc(OCc2ccc3ccccc3n2)cc1)C(=O)O)c1cnnc2ccccc12` (stereo not shown) [Compound 28]: the melting point was determined as 232 °C. Moreover, the IC50 in data set [1] was greater than 300 nM.

`O=C(NC(Cc1ccc(OCc2ccc3ccccc3n2)cc1)C(=O)O)c1ccccc1` (stereo not shown) (as salt: hydrochloride) [Compound 2] displayed a melting point of 140 °C.
